Data published in patent US9271978B2 (Zenith Epigenetics Corp., priority 2012, dated 2016).

Tests used:
Design in all cases: key: Active: Compounds with an IC50 value less than 30 μM were deemed to be active.; Not Active: Compounds with an IC50 value less than 30 μM were deemed to be active
[1] = target: T1, Brd4 bromodomain 1 (BRD4(1)) (Homo sapiens, UniProt O60885); assay: Inhibition of tetra-acetylated histone H4 binding to Brd4 bromodomain 1 (TR-FRET); conditions: tetra-acetylated histone H4 peptide, active = IC50 <30 μM
T1 construct: Illustrative results with the first bromodomain of Brd4; made in house; host or cells: E. coli BL21 (DE3)
Outline: (§1)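 IC50 values come from dose-response curves of the 665 nm to 620 nm TR-FRET signal decrease, measured after 2 h at room temperature. Reactions contained 200 nM E. coli-expressed His-tagged bromodomain, 25-50 nM biotinylated tetra-acetylated H4 peptide, Eu-streptavidin plus XL665 anti-His antibody, with 30 mM HEPES pH 7.4, 320 mM KF and 0.2% DMSO.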

hIL-6 mRNA = assay: Inhibition of hIL-6 mRNA transcription in U937 cells; format: cell-based, human; conditions: LPS stimulation, active = IC50 <30 μM
Protocol: In this example, hIL-6 mRNA in tissue culture cells was quantitated to measure the transcriptional inhibition of hIL-6 when treated with a compound of the present disclosure.
A human leukemic monocyte lymphoma cell line (U937) was plated (3.2×10^4 cells per well) in a 96-well plate in […] RPMI-1640 containing 10% FBS and penicillin/streptomycin, and differentiated into macrophages for 3 days in 60 ng/mL PMA ([…]) at 37° C. in 5% CO2 prior to the addition of the compound of interest. The cells were pretreated for 1 h with the test compound prior to stimulation with 1 ug/mL lipopolysaccharide from Escherichia coli. The cells were incubated at 37° C. for 3 h before the cells were harvested. At time of harvest, the spent media was removed from the cells and the cells were rinsed in […] PBS. Cell lysis solution (70 μL) was added the cells in each well and incubated for 5-10 min at room temperature, to allow for complete cell lysis and detachment. mRNA was then prepared using the “mRNA Catcher PLUS plate” (Invitrogen), according to the protocol supplied. After the last wash, as much wash buffer as possible was aspirated without allowing the wells to dry. Elution buffer (E3, 70 μL) was then added to each well. mRNA was then eluted by incubating the mRNA Catcher PLUS plate with Elution Buffer for 5 min at 68° C. and then immediately placing the plate on ice.
The eluted mRNA isolated was then used in a one-step quantitative real-time PCR reaction, using components of the Ultra Sense Kit together with Applied Biosystems primer-probe mixes. Real-time PCR data was analyzed, normalizing the Ct values for hIL-6 to an internal control, prior to determining the fold induction of each unknown sample, relative to the control.

c-myc = assay: Inhibition of c-myc expression in MV4-11 cells (mRNA, real-time PCR); format: cell-based; conditions: Human AML MV4-11 cells, 3 h incubation
Protocol: MV4-11 cells (2.5×10^4 cells) were plated in 96 well U-bottom plates with test compound or DMSO (0.1%), and incubated for 3 h at 37° C. Cells were then harvested by centrifugation, lysed, and mRNA was isolated using the mRNA catcher plus kit (Invitrogen). Reverse transcription of the mRNA and duplex amplification of the c-myc and cyclophilin cDNAs was performed using the RNA Ultrasense kit (Invitrogen) and a ViiA7 real-time PCR machine (Applied Biosystems). IC50 values were determined from a dose response curve.

[2] = test system: human AML MV-4-11 (CRL-9591) cells; assay: Inhibition of cell proliferation in MV4-11 cells; format: cell-based; conditions: human AML MV-4-11 cells, 72 h; active = IC50 <30 μM
Protocol: MV4-11 cells: 96-well plates were seeded with 5×10^4 cells per well of exponentially growing human AML MV-4-11 (CRL-9591) cells and immediately treated with two-fold dilutions of test compounds, ranging from 30 μM to 0.2 μM. Triplicate wells were used for each concentration, as well as a media only and three DMSO control wells. The cells and compounds were incubated at 37° C., 5% CO2 for 72 h before adding 20 μL of the CellTiter Aqueous One Solution (Promega) to each well and incubating at 37° C., 5% CO2 for an additional 3-4 h. The absorbance was taken at 490 nm in a spectrophotometer and the percentage of proliferation relative to DMSO-treated cells was calculated after correction from the blank well. IC50 were calculated using the GraphPad Prism software.

[3] = target: T2, second bromodomain of Brd2 (BRD2(2)) (Homo sapiens, UniProt P25440); assay: Inhibition of tetra-acetylated histone H4 binding to Brd2 bromodomain 2 (TR-FRET); conditions: tetra-acetylated histone H4 peptide, active = IC50 <30 μM
T2 construct: made in house; host or cells: E. coli BL21 (DE3)
Outline: as §1

T2 sequence (P25440 344-453 limits assumed): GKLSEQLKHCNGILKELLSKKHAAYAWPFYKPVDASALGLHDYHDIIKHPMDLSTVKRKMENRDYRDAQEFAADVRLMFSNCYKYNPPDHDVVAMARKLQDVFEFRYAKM

| FRET activity (IC50 <30 μM) BRD4(1) [1] | IL-6 activity (IC50 <30 μM) (hIL-6 mRNA) | c-myc activity (IC50 <30 μM) (c-myc) | Cell Proliferation activity (IC50 <30 μM) [2] | FRET activity (IC50 <30 μM) BRD2(2) [3] | Structure (SMILES) |
| --- | --- | --- | --- | --- | --- |
| Active | Active | Active | Active |  | Cc1noc(C)c1-c1cc(N)c(=O)n(C(C)c2ccccc2)c1 (centres unmarked) [Example 263, 3-amino-5-(3,5-dimethylisoxazol-4-yl)-1-(1-phenylethyl)pyridin-2(1H)-one] |
| Active |  | Active | Active |  | Cc1noc(C)c1-c1cc(N)c(=O)n(Cc2ccc(C#N)c(F)c2)c1 [Example 262, 4-((3-amino-5-(3,5-dimethylisoxazol-4-yl)-2-oxopyridin-1(2H)-yl)methyl)-2-fluorobenzonitrile] |
| Active |  | Active | Active |  | Cc1noc(C)c1-c1cc(N)c(=O)n(Cc2ccc(C#N)cc2F)c1 [Example 261, 4-((3-amino-5-(3,5-dimethylisoxazol-4-yl)-2-oxopyridin-1(2H)-yl)methyl)-3-fluorobenzonitrile] |
| Active | Active | Active | Active |  | Cc1noc(C)c1-c1cc(N)c(=O)n(Cc2c[nH]c3ccccc23)c1 [Example 270, 1-((1H-indol-3-yl)methyl)-3-amino-5-(3,5-dimethylisoxazol-4-yl)pyridin-2(1H)-one] |
| Active |  | Not Active | Not Active | Active | Cc1noc(C)c1-c1ccc(=O)n(Cc2c(F)cccc2F)n1 [Example 90, 2-(2,6-Difluorobenzyl)-6-(3,5-dimethylisoxazol-4-yl)pyridazin-3(2H)-one] |
| Active | Active | Active | Active |  | Cc1noc(C)c1-c1cc(N)c(=O)n(Cc2ccc(I)cc2)c1 [Example 267, 3-amino-5-(3,5-dimethylisoxazol-4-yl)-1-(4-iodobenzyl)pyridin-2(1H)-one] |
| Active | Active | Active | Active |  | Cc1noc(C)c1-c1cc(N)c(=O)n(Cc2ncccc2Cl)c1 [Example 254, 3-amino-1-((3-chloropyridin-2-yl)methyl)-5-(3,5-dimethylisoxazol-4-yl)pyridin-2(1H)-one] |
| Active |  | Active | Active |  | Cc1noc(C)c1-c1cc(N)c(=O)n(Cc2ccc(Cl)cn2)c1 [Example 255, 3-amino-1-((5-chloropyridin-2-yl)methyl)-5-(3,5-dimethylisoxazol-4-yl)pyridin-2(1H)-one] |
| Active |  | Not Active | Not Active | Active | Cc1noc(C)c1-c1ccc(=O)n(Cc2cccc(F)c2)n1 [Example 22, 6-(3,5-Dimethylisoxazol-4-yl)-2-(3-fluorobenzyl)pyridazin-3(2H)-one] |
| Active |  | Not Active | Not Active | Active | Cc1noc(C)c1-c1ccc(=O)n(Cc2ccccn2)n1 [Example 2, 6-(3,5-Dimethylisoxazol-4-yl)-2-(pyridin-2-ylmethyl)pyridazin-3(2H)-one] |
| Active | Active | Active |  | Active | Cc1ccccc1Cn1cc(-c2c(C)noc2C)ccc1=O [Example 121, 5-(3,5-Dimethylisoxazol-4-yl)-1-(2-methylbenzyl)pyridin-2(1H)-one] |
